# From patent US7737253B2, “Human cancer stem cell culture compositions comprising Erbb2 variants and methods of use thereof” (BresaGen, Inc., priority 2006, dated 2010)
# pKd: −log10 of the molar value. “Also recorded” adds a separate entry of the source.
# Assays:
# ERBB2 (phospho-Y1248) = test: Western blot of ERBB2 phospho-Y1248 in BG01 hESCs; format: cell-based, human; conditions: BG01 hESCs starved overnight
# Procedure: BG01 hESCs were grown in DC-HAIF and then in media minus or starved of growth factors overnight, washed and then pulsed with either with heregulin (HRG) or not, or incubated with AG825 or not.
# All BG01 HESC cultures were first grown in defined conditioned-heregulin/Activin A/IGF1/FGF (DC-HAIF) and then in media starved of growth factors overnight e.g., no heregulin, Activin A, IGF1 and/or FGF. […]
# Cell lysates were prepared as per RTK blotting, separated by 4-20% gradient SDS-PAGE, blotted and detected with an immunoaffinity purified anti-ERBB2 (phospho-Y1248) antibody (Upstate/Millipore Cat#06229). The Erbb2 phospho-Y1248 antibody was used to quantify tyrosine phosphorylation of Erbb2 resulting from the interaction of heregulin with Erbb3 and/or ErbB4. […]
# Erbb2 tyrosine kinase = Erbb2 tyrosine kinase (Homo sapiens, UniProt P04626); conditions: cited from earlier work
# BG01v cells = test: Growth of BG01v cells in defined media with Erbb2 TK inhibitors; format: cell-based, human; conditions: absence of an exogenous Erbb2 activating growth factor
# Excerpt: This confirms that endogenous Erbb2 signaling is critical for the self-renewal of BG01v cells and represents a major difference between variant and normal hESCs.
# hESCs = test: hESC proliferation and cell count after treatment with AG825; format: cell-based, human; conditions: for cell count: average of triplicate counts
# Procedure: Based on the above studies described in Examples 13 and 14, further experiments were performed to quantify the number of hESCs and determine the level of inhibition of Erbb2 using AG825. […] Values reported were taken from an average of the triplicate (3) cell counts. The initial cell count was performed similarly. AG825 inhibited Erbb2 tyrosine kinase activity, thereby inhibiting cell signaling, and effectively reducing and inhibiting HESC proliferation and growth by about at least 1, 2 or 3 orders of magnitude.
# [1] = test system: Erbb2Δ16-expressing cells; conditions: unlike wild type Erbb2-transfectants; cited from earlier work
# Erbb2Δ16 = target: T1, Erbb2Δ16 (Homo sapiens, UniProt P04626, DEL634-649); conditions: cited from earlier work
# T1 construct: host or cells: transfected human cells / Erbb2Δ16 transgene over-expression (Castiglioni et al., 2006)
# wild type Erbb2 = target: T2, wild type Erbb2 (Homo sapiens, UniProt P04626); conditions: cited from earlier work
# T2 construct: host or cells: transfected human cells (Castiglioni et al., 2006)
# Erbb2/3 heterodimers = Erbb2/3 heterodimers (Homo sapiens, UniProt P21860); conditions: read-out: binding affinity; cited from earlier work
# Erbb2/4 heterodimers = Erbb2/4 heterodimers (Homo sapiens, UniProt Q15303); conditions: read-out: binding affinity; cited from earlier work
# Erbb2 = test: Phospho-RTK antibody array, Erbb2 phosphorylation in BG01 and BG01v cells; format: cell-based, human; conditions: BG01 and BG01v cells starved overnight, then pulsed about 15 minutes with 10 ng/ml heregulin
# Procedure: (§1) (A) BG01 and BG01v cells were grown in defined condition-heregulin/Activin A/IGF-1/FGF (DC-HAIF) media. The hESCs were starved of growth factors overnight (“Starved”), or starved then pulsed with 10 ng/ml Heregulin (“HRG pulse”). Cell lysates were prepared and examined for phosphorylation of Erbb2 and Erbb3 by RTK blotting. (B) The spots were quantified, normalized against controls, and charted as normalized relative intensity. […] While at a lower overall intensity, a similar pattern was also observed in the starved conditions.
# (§2) Cells were maintained in steady state conditions in defined conditioned-heregulin/Activin A/IGF1/FGF (DC-HAIF), were incubated in media minus or starved of growth factors (e.g., no heregulin/Activin A/IGF1/FGF) overnight, or starved and then pulsed about 15 minutes with 10 ng/ml heregulin. Proteome Profiler™ human phospho-RTK antibody arrays (R&D Systems, Cat#ARY001) were used according to the manufacturer's instructions. […] The arrayed antibodies capture the extracellular domains of both phosphorylated and unphosphorylated RTKs, and bound phospho-RTKs were detected with a pan anti-phospho-tyrosine antibody conjugated to horseradish peroxidase (HRP) using chemiluminescence. X-ray film was scanned and spots were quantified using NTH-image (world wide web at rsb.info.nih.gov/nih-image/). […]
# Erbb3 = target: T3, Erbb3 (Homo sapiens, UniProt P21860); test: Phospho-RTK antibody array, Erbb3 phosphorylation in BG01 and BG01v cells; format: cell-based; conditions: BG01 and BG01v cells starved overnight, then pulsed about 15 minutes with 10 ng/ml heregulin
# T3 construct: endogenous in cells; host or cells: BG01 and BG01v human embryonic stem cells
# Procedure: as §1, §2
compound,measurement,setting,value
"COc1cc(/C=C(\C#N)C(N)=O)cc(CSc2nc3ccccc3s2)c1O [AG825, Tyrphostin AG825]",autophosphorylation of ERBB2 at Tyrosine-1248,"ERBB2 (phospho-Y1248); 15 minute pulse, 50 μM AG825 without or with 10 ng/ml HRG1β (lanes 2 and 4)",inhibited autophosphorylation; also recorded: inhibition of ERBB2 Y1248 phosphorylation
same,selectivity as inhibitor of the Erbb2 tyrosine kinase,Erbb2 tyrosine kinase,highly selective inhibitor
same,growth of BG01v cells,BG01v cells,inhibit the growth
same,number of hESCs after treatment compared to DMSO and conditioned media (CM) control,hESCs,statistically significant decrease
same,cell count,"hESCs; Experiment 1, initial cell count 560 × 10^3, CM 1.99 × 10^6, DMSO 2.13 × 10^6, P = 0.005",406.6 × 10^3
same,cell count,"hESCs; Experiment 2, initial cell count 853.3 × 10^3, CM 2.77 × 10^6, DMSO 2.54 × 10^6, P = 0.007",433.3 × 10^3
same,proliferation of hESCs,hESCs; hESCs growing in CM,significantly inhibited proliferation
CC(C)(C)c1cc(/C=C(\C#N)C(N)=S)cc(C(C)(C)C)c1O [AG879],growth of BG01v cells,BG01v cells,inhibit the growth
COc1cc2ncnc(Nc3ccc(F)c(Cl)c3)c2cc1OCCCN1CCOCC1 [ZD1839],sensitivity of Erbb2Δ16-expressing cells to the drug,[1],low sensitivity
Cc1cc(O)c2c(c1)C(=O)c1cc(O)cc(O)c1C2=O [emodin],activation of Erbb2Δ16 transfectants,Erbb2Δ16,blocked activation
same,activation of wild type Erbb2 transfectants,wild type Erbb2,blocked activation
same,growth of BG01v cells,BG01v cells,inhibit the growth
"HRG-β: neuregulin-β, EGF growth factor family member; cleaved ectodomain of neuregulin",pKd,Erbb2/3 heterodimers,> 9.00
same,pKd,Erbb2/4 heterodimers,> 9.00
"HRG: Heregulin-β EGF domain (HRGβ, Peprotech), recombinant growth factor",Erbb2 phosphorylation detected by phospho-Y1248 antibody,ERBB2 (phospho-Y1248); 15 minute pulse with 10 ng/ml HRG1β (lane 3) or DC-HAIF media (lane 5),increased Erbb2 phosphorylation
same,phosphorylation of ERBB2,Erbb2,strong phosphorylation
same,phosphorylation of ERBB3,Erbb3,strong phosphorylation
